From patent US5859027A, “Antimicrobial agent” (ChekTec Corporation, priority 1997, dated 1999) come the findings set out here.

Read-outs that look alike come from different tables or passages of the source.

In one assay the test system is Fungal cells. Briefly: Disk diffusion assay for antimicrobial activity (Example 2), zone of growth inhibition. In kind it is cell-based. The method, then: Fungal cells were grown overnight from a single colony in 2-5 ml Sabouraud Dextrose Broth at 37° C. 1-5×10^6 were spread onto Sabouraud Dextrose Agar plates (Difco, Detroit, Mich.). Sterile 6 mm filter disks were evenly spaced with at least about 22 mm separation on the plates. To each disk, 100 μg of a compound to be tested was applied in 5-10 μl DMSO. On each plate, two disks containing 2.5 and 10 μg, respectively, of Amphotericin B (Sigma) and two disks containing 2.5 and 10 μg, respectively, of cerulenin (Sigma) were used as positive controls. A disk containing only DMSO served as the negative control. The plates were incubated at 37° C. for 24 hours and the zone of growth inhibition about each disk was visually examined and measured. Compound A and compound B typically produced clear zones of 8-12 mm diameter. Amphotericin B typically produced a clear zone of 8-10 mm diameter. Cerulenin typically produced a hazy zone of 20-25 mm diameter. A clear zone is indicative of fungicidal activity, while a hazy zone is indicative of fungistatic activity.

For another assay, the target named is T1, FAS from S. cereviseae (Saccharomyces cerevisiae, UniProt P07149+P19097).
T1 construct: an FAS extract from Saccharomyces cerviseae was prepared; (the yeast itself); host or cells: Fleishmans' freeze dried yeast (Saccharomyces cerevisiae); dialyzed ammonium sulfate precipitate of the lysate
The experiment in a line: FAS inhibition assay (Example 1C). In kind it is biochemical. The method, then:
To test the compounds for FAS inhibitory activity, an FAS extract from Saccharomyces cerviseae was prepared. Freeze dried yeast (Fleishmans' freeze dried yeast, Specialty Brands, San Francisco, Calif.) 1 g, was hydrated in 5 mls deionized water for 15 minutes at 4° C. Subsequent extraction steps were conducted at a temperature between 4° C. and 10° C., except that in the cell lysis step the temperature may have briefly exceeded these boundaries. The cells were pelleted by centrifugation; the pelleted volume was measured; and the cells were resuspended in 5 vol. (5 mls per ml cell volume) extraction buffer [125 mM KH2PO4, pH 6.6, 1 mM EDTA, 1 mM DTT, 0.7 μg/ml pepstatin (Boehringer Mannheim, Indianapolis, Ind.), 0.2 μg/ml aprotinin (Boehringer Mannheim, Indianapolis, Ind.), 0.2 μg/ml leupeptin (Boehringer Mannheim, Indianapolis, Ind.)]. The cells were again pelleted and resuspended in 2 vol. extraction buffer. The cells were lysed using a bead mill homogenizer (Biospec Products, Bartlesville, OD) with a volume of glass beads equal to the volume of the yeast cells. The bead mill was operated five times for 1 minute, with 1 minute intervals between operations to allow the water jacket of the bead mill to cool the material in the mill. The lysate was centrifuged at 30,000×g for 30 minutes and the supernate was collected. Ammonium sulfate was added to the supernate to 50% saturation and the mixture was stirred for 30 minutes on ice. […]
105 μl of FAS extract was placed in each well of a polypropylene 96 well plate (Costar Corp. Cambridge, Mass.) and multiple 5 μl dilutions of compound A, compound B or negative control solution were introduced into each of the wells. […] The relative initial reaction rates in each well were measured by measuring the decrease in optical density at 340 nm using a UV Max microtiter plate reader (Molecular Devices, Sunnyvalle, Calif.).

The target in assay [1] is T2, FAS of C. Albicans strain 4918 (Candida albicans, UniProt P34731+P43098).
T2 construct: endogenous in cells; host or cells: Candida albicans strain 4918 (from Dr. Ronald Cihlar, Georgetown University Medical Center)
Briefly: FAS activity in extracts of treated C. Albicans cultures (Example 10). In kind it is cell-based. To be noted: for remaining activity at 25 µg/mL: read-out: Percent Remaining FAS Activity. The method, then: C. Albicans strain 4918 (available from Dr. Ronald Cihlar, Georgetown University Medical Center, Washington, D.C.) was grown in minimal medium (M63 media available from Difco, Detroit, Mich.) at 37° C. to mid-log phase. 10 μg/ml cerulenin and 25 μg/ml of compound B were added to separate cultures. At 15 minute intervals, 20 ml samples were removed and extracts prepared by mechanical extraction as in Example 1C, except that the ammonium sulfate precipitation step was not applied. The extract was diluted to 1 ml to form a solution containing 0.4M potassium phosphate, pH 7.3, 0.125 μM dithiothreitol, 50 μM acetyl-CoA, 100 μM NADPH. After incubation at 37° C. for 5 minutes, 100 μM malonyl-CoA containing 0.5 μCi [2-^14 C]-malonyl-CoA (Amersham, Arlington Heights, Ill.). After 10 minutes at 37° C., the fatty acid synthesis reaction was terminated by adding 30 μl of 60% perchloric acid (v/v) and 1 ml ethanol. Four volumes of pet. ether were added to each reaction incubation to extract the fatty acids. The relative incorporation of malonyl-CoA into fatty acids was determined by liquid scintillation counting.

T2 sequence (P43098 whole entry): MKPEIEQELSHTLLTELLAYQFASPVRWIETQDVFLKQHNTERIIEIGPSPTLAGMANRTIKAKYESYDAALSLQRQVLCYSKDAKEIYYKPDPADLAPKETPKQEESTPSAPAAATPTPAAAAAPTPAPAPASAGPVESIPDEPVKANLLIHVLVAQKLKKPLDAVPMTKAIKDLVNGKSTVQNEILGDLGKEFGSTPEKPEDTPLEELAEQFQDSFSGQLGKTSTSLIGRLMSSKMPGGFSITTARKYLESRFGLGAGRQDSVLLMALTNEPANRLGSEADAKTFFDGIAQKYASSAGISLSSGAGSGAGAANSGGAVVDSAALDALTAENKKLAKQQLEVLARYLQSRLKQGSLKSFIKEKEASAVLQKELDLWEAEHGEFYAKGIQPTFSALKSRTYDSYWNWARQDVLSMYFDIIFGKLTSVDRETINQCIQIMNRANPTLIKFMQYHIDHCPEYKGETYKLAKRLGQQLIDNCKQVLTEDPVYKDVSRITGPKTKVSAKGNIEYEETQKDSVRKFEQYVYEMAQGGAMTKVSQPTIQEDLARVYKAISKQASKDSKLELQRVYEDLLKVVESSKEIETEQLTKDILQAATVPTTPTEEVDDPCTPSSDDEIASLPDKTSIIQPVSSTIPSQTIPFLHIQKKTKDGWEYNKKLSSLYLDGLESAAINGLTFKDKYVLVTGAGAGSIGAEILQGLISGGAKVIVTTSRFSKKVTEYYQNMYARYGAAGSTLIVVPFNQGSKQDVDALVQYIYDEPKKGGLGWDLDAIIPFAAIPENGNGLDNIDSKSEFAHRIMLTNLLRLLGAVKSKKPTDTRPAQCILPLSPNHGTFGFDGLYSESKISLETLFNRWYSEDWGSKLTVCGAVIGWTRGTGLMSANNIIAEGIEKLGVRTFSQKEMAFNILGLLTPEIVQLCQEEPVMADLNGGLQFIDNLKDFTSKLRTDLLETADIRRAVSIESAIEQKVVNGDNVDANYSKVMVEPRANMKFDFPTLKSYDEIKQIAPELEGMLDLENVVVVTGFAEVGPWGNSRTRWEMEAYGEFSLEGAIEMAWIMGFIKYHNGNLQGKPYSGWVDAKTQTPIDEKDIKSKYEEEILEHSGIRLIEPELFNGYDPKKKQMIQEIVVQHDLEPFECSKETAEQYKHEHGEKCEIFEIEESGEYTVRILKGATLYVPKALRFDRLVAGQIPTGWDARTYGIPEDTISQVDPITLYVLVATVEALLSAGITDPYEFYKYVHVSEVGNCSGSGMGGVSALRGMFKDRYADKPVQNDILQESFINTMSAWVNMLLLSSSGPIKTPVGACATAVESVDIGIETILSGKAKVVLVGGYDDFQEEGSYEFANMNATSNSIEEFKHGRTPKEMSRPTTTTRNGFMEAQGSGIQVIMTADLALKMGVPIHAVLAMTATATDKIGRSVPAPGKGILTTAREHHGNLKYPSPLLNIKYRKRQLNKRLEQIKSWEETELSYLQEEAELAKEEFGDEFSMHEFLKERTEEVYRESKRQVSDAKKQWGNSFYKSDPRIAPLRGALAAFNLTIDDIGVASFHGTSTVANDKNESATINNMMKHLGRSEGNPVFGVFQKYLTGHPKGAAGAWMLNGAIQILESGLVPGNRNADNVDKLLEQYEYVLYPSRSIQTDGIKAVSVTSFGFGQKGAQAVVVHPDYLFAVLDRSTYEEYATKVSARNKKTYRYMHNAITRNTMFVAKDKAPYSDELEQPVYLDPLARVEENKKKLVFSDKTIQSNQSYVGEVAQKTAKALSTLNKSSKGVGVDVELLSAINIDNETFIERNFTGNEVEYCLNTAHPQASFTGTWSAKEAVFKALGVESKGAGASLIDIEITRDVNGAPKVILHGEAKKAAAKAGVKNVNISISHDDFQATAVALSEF
T2 sequence (P34731 whole entry): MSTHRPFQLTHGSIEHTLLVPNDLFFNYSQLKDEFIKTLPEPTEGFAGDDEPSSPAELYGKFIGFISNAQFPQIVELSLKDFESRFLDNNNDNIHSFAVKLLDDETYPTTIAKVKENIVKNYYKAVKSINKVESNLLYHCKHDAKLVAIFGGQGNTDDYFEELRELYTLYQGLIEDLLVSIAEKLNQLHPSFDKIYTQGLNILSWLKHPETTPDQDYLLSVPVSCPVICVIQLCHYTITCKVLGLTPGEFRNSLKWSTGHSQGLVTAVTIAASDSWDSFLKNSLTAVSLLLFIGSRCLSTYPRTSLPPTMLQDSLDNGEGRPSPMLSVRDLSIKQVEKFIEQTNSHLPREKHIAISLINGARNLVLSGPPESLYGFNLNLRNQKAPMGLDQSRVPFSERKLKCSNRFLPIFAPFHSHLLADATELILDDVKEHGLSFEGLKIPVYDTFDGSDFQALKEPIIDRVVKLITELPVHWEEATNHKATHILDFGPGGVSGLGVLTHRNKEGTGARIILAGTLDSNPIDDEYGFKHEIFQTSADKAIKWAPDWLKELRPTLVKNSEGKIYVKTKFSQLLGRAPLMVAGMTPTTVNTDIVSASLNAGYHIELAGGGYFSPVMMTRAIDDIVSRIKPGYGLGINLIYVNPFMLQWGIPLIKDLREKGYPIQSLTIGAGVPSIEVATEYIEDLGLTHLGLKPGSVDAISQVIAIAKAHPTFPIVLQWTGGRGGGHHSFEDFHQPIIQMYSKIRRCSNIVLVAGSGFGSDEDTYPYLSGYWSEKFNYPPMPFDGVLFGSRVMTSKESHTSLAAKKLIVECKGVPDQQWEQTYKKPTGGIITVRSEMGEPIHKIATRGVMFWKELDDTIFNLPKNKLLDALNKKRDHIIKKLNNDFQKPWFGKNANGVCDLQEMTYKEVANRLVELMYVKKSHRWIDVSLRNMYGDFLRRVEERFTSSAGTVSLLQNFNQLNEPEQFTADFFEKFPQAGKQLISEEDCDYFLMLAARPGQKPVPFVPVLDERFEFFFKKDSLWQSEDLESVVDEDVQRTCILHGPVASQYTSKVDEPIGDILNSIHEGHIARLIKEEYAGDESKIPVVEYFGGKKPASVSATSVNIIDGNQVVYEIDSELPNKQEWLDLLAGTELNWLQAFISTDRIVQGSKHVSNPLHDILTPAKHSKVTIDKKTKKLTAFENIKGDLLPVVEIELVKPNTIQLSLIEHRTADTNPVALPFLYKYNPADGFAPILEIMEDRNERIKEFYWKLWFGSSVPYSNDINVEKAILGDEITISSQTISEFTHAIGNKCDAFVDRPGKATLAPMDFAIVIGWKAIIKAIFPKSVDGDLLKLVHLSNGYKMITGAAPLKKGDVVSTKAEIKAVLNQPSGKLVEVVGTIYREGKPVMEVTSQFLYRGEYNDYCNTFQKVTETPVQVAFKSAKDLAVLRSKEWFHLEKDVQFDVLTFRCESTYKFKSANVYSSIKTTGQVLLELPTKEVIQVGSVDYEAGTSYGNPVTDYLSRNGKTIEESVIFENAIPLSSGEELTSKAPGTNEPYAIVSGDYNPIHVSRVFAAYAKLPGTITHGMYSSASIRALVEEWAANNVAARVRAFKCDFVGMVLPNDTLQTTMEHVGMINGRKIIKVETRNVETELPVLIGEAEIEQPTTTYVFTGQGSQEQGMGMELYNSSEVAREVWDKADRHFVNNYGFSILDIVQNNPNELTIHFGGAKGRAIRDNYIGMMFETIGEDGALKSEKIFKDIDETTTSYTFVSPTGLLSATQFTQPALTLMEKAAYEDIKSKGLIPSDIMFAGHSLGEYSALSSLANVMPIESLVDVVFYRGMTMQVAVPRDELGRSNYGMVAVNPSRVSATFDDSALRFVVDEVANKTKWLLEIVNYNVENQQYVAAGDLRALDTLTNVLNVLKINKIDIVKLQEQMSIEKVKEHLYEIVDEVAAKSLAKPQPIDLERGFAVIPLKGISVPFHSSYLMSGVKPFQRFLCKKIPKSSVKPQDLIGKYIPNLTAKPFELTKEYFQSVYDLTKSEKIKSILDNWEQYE

On to `C/C=C/C=C/C=C/C1=CC2=CC(=O)C(C)(OC(=O)CC(C)O)C(=O)C2=CO1` (centres unmarked) [Compound B], for which, in the assay with Fungal cells (100 μg per 6 mm disk, 37° C., 24 hours, read-out: zone of growth inhibition, diameter), the zone of inhibition at 100 µg/disc was in the range of 8 to 12 mm. In the assay on Fungal cells (100 μg per disk), the “zone appearance (clear = fungicidal, hazy = fungistatic)” value is “clear zones”. Also, at FAS from S. cereviseae, the “FAS inhibition in the in vitro enzyme inhibition assay (in words)” value is reported as “not directly inhibitory of FAS”. The “FAS activity of cell extracts made after exposure (in words)” value in assay [1] is given as “markedly reduced FAS activity”. Also, the remaining activity at 25 µg/mL in assay [1] (0.25 h) worked out at 53%; in assay [1] (0.5 h) it was 40%; in assay [1] (0.75 h) it was 35%; in assay [1] (1 h) it was 22%.
